Laboratory results from patent US20230040597A1, “USE OF NICOLSAMIDE FORMULATIONS FOR ANTIVIRAL THERAPY” (priority 2020, published 2023).
Converted amounts (≈) assume the structure as drawn. Like-named read-outs stand apart in the source and are kept apart here.

Tests used:
[1] = tested on: SARS-CoV-2; assay: microbe, parasite or virus in culture; type: cell-based; settings: Severe acute respiratory syndrome coronavirus 2, Vero C1008; Vero E6 cells; reporter SARS-CoV-2 MOI of 0.1; luciferase at 24 h post-infection; 0.5% DMSO; read-out: antiviral EC50
[2] = Drug-excipient compatibility study (related substances of binary mixtures); type: physicochemical
Method: Proposed drug to excipient ratio was selected based on the function of the excipient and maximum concentration to be used. Drug and excipient binary mixtures were prepared by uniform mixing. The blends were packed in clear glass vials and the compatibility was evaluated in closed conditions. In the closed-vial study, the dry mix samples were filled in vials with screw stopper fitting covered with parafilm and stored at 40° C./75% RH, 25° C./60% RH and 2° C.-8° C. storage condition up to 4 weeks. Samples at 40° C./75% RH and 25° C./60% RH were checked for physical description and analyzed for related substances, initially, at 2 weeks and at 4 weeks. Ratio of drug substance to excipients in blend for the compatibility study, are as follows: a) niclosamide:gelling agents/mucoadhesive agents was 1:15; b) niclosamide:solvents/co-solvents was 1:5; c) niclosamide:pH adjusting agents/neutralizing agents was 1:1; and d) niclosamide: preservatives/anti-oxidants was 1:0.5. Summary of physical description and related substances analysis of binary mixtures of API & excipients at initial and 40° C./75% RH-4 weeks condition are presented below in Table 8.
The impurities detected were as follows: Impurity-1 (5-chloro salicylic acid); Impurity-2 (2-chloro-4-nitro aniline); Impurity-3 (N-(2-chloro-4-nitrophenyl)-2-hydroxybenzamide); Impurity-4 (3,5-dichloro-N-(2-chloro-4-nitrophenyl)-2-hydroxybenzamide); and Impurity-5 (3-chloro-N-(2-chloro-4-nitrophenyl)-2-hydroxybenzamide).

[3] = type: physicochemical
Method: Saturation solubility of niclosamide was studied in the solvents, to know the highest concentration of niclosamide that can be solubilized, as depicted in table 6.
Heating and stirring improved solubilization of niclosamide in polyethylene glycol. […] In further formulation studies, drug substance concentration >7% w/w was desired, so 65° C. of temperature was used for solubilization of API.

[4] = tested on: human sperm; assay: Dose-dependent effect of niclosamide on sperm motility in fresh human semen; type: cell-based
Method: FIG. 1 is a graph depicting the dose dependent effect of niclosamide dissolved in DMSO, on sperm motility. Fresh human semen samples were mixed with the different concentrations of niclosamide in vitro, followed by analysis of sperm motility within 2 minutes. The x-axis depicts the different concentrations of niclosamide mixed with the semen sample. The x-axis, from Left to Right: the gray bar depicts an untreated semen sample, the blue bar depicts a vehicle control, and the eight pink bars depict the increasing concentrations of niclosamide tested. […] The y-axis depicts the percentage (%) inhibition in sperm motility of each semen sample treated with a concentration of niclosamide o normalized to the sperm motility of a control sample. Change in sperm motility relative to control treated sample is shown as mean +/−standard error of the mean (S.E.M.) for the aggregate of individual experiments.
Sperm motility is a functional measurement of the sperm themselves. Sperm may be sampled directly from semen or from washed sperm samples, and assessed for motility either manually or by CASA (Computer Assisted Sperm Analysis) (Chapter 59—Male Reproductive System. Systems Toxicologic Pathology. Dianne M. Creasy, Robert E. Chapin, in Haschek and Rousseaux's Handbook of Toxicologic Pathology (Third Edition), 2013; Amann R P et al. Computer-assisted sperm analysis (CASA): capabilities and potential developments. Theriogenology. 2014 Jan. 1; 81(1):5-17).
Sperm motility (expressed as %) may be evaluated in duplicate within 1 h of semen collection, by counting moving and nonmoving sperm in several microscopic fields. […] In preferred embodiments, only complete spermatozoa (head with tail) are included in such counts. Slow-moving sperm (class B+C) can be easily and accurately counted compared with rapidly moving (class A) sperm. A multi-button tally, preferably a digital one, is used to differentially count such motility (for additional detail, see Chapter 23: Standardized semen analysis and quality control management for multicenter male reproductive toxicology clinical trials, Sikka S. C. et al., in Bioenvironmental Issues Affecting Men's Reproductive and Sexual Health, 2018, the contents of which are incorporated herein by reference in their entirety).
After 2 minutes of incubation with the formulation, the semen samples were collected and analyzed for sperm motility. […] Data were collected within 2 minutes after mixing the formulation in gel form, with fresh semen, so the effects are instantaneous. As for timing, the gel may be applied 15-20 minutes prior to intercourse to allow gelling to fully occur. Furthermore, the gel may not be efficacious after residing in the vagina for longer than 1 hour.

[5] = Saturation solubility in buffers (shake flask method); settings: 0.1 N HCl, 0.01 N HCl, pH 3.0 and 4.0 acid phthalate buffer, pH 4.5 and 5.1 acetate buffer
[6] = physchem; settings: 25 °C, water
[7] = 40° C./75% RH, 4 Weeks, closed vial

O=C(Nc1ccc([N+](=O)[O-])cc1Cl)c1cc(Cl)ccc1O [niclosamide]
EC50 [1]: 150 nM
Imp-3 [2, 7]: 0.026%
Imp-4 [2, 7]: 0.012%
Imp-5 [2, 7]: 0.014%
Single Max Unk Imp [2, 7]: 0.007%
Total Impurities [2, 7]: 0.06%
Imp-3 ([2]; Initial): 0.029%
Imp-4 ([2]; Initial): 0.009%
Single Max Unk Imp ([2]; Initial): 0.010%
Total Impurities ([2]; Initial): 0.05%
Solubility (pH 1.2): Nil
Solubility (pH 2): Nil
Solubility (pH 3): Nil
Solubility (pH 4): Nil
Solubility (pH 4.5): Nil
Solubility (pH 5.1): Nil
maximum solubility [3]: 5 % w/w
Minimum dose to see effect (inhibits sperm motility) [4]: 4 mM
Minimum dose to see effect (inhibits sperm motility), Amount (w/w) [4]: 0.13%
inhibition at 10000 µM ([4]; Sperm, 2 min, 10 mM niclosamide, fresh human semen, within 2 minutes, relative to control, read-out: percentage (%) inhibition in sperm motility): 100%
Concentration giving complete inhibition of sperm motility ([4]; semen sample vs control sample, 2 minutes incubation): ≥ 10 mM
solubility in studied buffers [5]: insoluble
Solubility [6]: 5 µg/mL (≈ 15.3 µM)
